From US20030170722A1, “Methods and reagents for regulating apoptosis” (priority 2001, published 2003) come the findings set out here.

Holding throughout (format): cell-based
In test [1] the test system is HeLa cells. Briefly: Mitochondrial membrane potential by TMRE fluorescence in HeLa cells expressing GFP constructs. As to conditions: CCCP.
Protocol: Measurement of Mitochondrial Membrane Potential in Cells Expressing M11L Constructs. […] Flow cytometric analysis was conducted using a Becton Dickinson FACSCalibur™ flow cytometer equipped with an argon ion laser with 15 mW of excitation at 488 nm. […] HeLa cells transiently expressing GFP plasmid constructs were treated with 2.5 μM staurosporine, and control samples were treated with DMSO alone. […] Flow cytometric analysis to detect green fluorescence due to GFP and orange fluorescence due to TMRE was conducted using a FACSCalibur™ instrument specified above. GFP fluorescence was collected after a 530/30-nm band pass filter, and TMRE fluorescence was acquired through a 585/42-nm band pass filter. Electronic fluorescence compensation was set to eliminate any spectral overlap of the emitted signals. Data were acquired at 10,000 cells per sample with fluorescence signals at logarithmic gain. The percentage of GFP-positive cells that were also TMRE-positive was then calculated for each gated cell population.
Test [2] relates to Rat2 fibroblasts. As to conditions: control cells, CCCP 50 μM.
Protocol: Measurement of Mitochondrial Membrane Potential in Cells Expressing M11L Constructs. Rat2puro or Rat2M11L cells were cultured in 12-well plates (5×10^5 cells/well) and treated with 2 μM staurosporine for 4 h. As the staurosporine stock was prepared in DMSO, control cells were treated with an equivalent amount of DMSO alone. Thereafter, the cells were stained with the green fluorescent dye 3,3′dihexyloxacarbocyanine iodide (DiOC6; Molecular Probes). […] Cells were incubated with 0.5 nM DiOC6 at 37° C. for 10 min, harvested with trypsin, and then washed and resuspended in RPMI lacking phenol red (GIBCO BRL). […] CCCP was added to the cell culture medium at a final concentration of 50 μM during and after dye addition. Flow cytometric analysis was conducted using a Becton Dickinson FACSCalibur™ flow cytometer equipped with an argon ion laser with 15 mW of excitation at 488 nm. Data were acquired at 10,000 cells per sample, and the fluorescent signal due to excitation of DiOC6 at 488 nm was detected through the FL1 channel equipped with a 530 nm filter (30 nm band pass). Light scatter signals were acquired at linear gain, and fluorescence signals were acquired at logarithmic gain.
In test [3] the test system is Rat2 fibroblasts. Briefly: TUNEL analysis of staurosporine-induced apoptosis in Rat2puro / Rat2M11L cells. As to conditions: 2 μM staurosporine, 5 h. The method, then: Ectopic Expression of M11L. Control pBabePuro and pBabe-PuroM11L vectors were transiently transfected into BOSC 23 cells and packaged into ecotropic virus particles as described (27). After infection of Rat2 fibroblasts, pooled clones of cells that had stably incorporated the respective proviruses were selected on the basis of ability to grow in the presence of 2.5 μg/ml puromycin, and designated Rat2puro and Rat2M11L. Expression of the M11L protein by Rat2M11L cells was verified by immunoblot analysis (data not shown). Transient expression of GFP chimeric proteins for flow cytometry was accomplished by transfecting HeLa cells with GFP plasmid constructs using the Lipofectin Plus reagent (GIBCO BRL) as described (28). Analysis was conducted 24 h after transfection.
Induction and Measurement of Apoptosis. Apoptosis was induced by addition of staurosporine (Sigma Chemical Co.) to the cell culture medium at a final concentration of 2 μM. Apoptotic cells were identified by measuring the characteristic elevation in levels of nicked DNA using the previously described terminal deoxynucleotidyl transferase-mediated dUTP-fluorescein nick end labeling (TUNEL) reaction (19, 29).

The subject of test [4] is Caspase-3. Nature of the test: Caspase-3 activation by SDS-PAGE and immunoblot in Rat2puro / Rat2M11L cells. As to conditions: 5 μM staurosporine, 4 h. The method, then: Measurement of Caspase-3 Activation. Rat2puro and Rat2-M11L cells (10^6) were incubated with 5 μM staurosporine for up to 4 h. Caspase-3 activation was detected by SDS-PAGE and immunoblot analysis as described (30) using an antibody directed against the large subunit of the active enzyme (provided by Dr. D. Nicholson, MerckFrosst Center for Therapeutic Research, Montreal, Quebec, Canada).
On the technique in general: In western blotting, separated proteins are transferred to a membrane and probed.

Regarding “carbonyl cyanide mchlorophenyl hydrazone [CCCP]”, in test [1], the “TMRE fluorescence (mitochondrial membrane potential)” value is “induced a marked loss of TMRE fluorescence”. In test [2], the “DiOC6 fluorescence (mitochondrial membrane potential)” value was “Fluorescence was diminished”.

For the molecule `CN[C@@H]1C[C@H]2O[C@@](C)([C@@H]1OC)n1c3ccccc3c3c4c(c5c6ccccc6n2c5c31)C(=O)NC4` [staurosporine], the “levels of TUNEL-positive (apoptotic) cells” value in test [3] is given as “steady increase in the levels of TUNEL-positive Rat2puro cells”. In addition, in test [4], the “Caspase-3 activation (32 kD proenzyme reduced, p19 cleavage product)” value is recorded as “resulted in activation of Caspase-3”.
